Earlier results on 1 substance are cited in patent publication US11478524B1, “Methods and compositions for modulating complex mixtures by selective deletion chromatography” (UNIVERSITY OF SOUTH FLORIDA, priority 2017, dated 2022).

Where two headings read alike, the source gives them in different places.

Take Epigallocatechin-3-gallate [EGCG]: the lifespan extension was 13% (under heat stress) and 178% (under oxidative stress). Besides, the effect on longevity entry (under normal conditions) is recorded as “little effect”.
